The term IC50 denotes the point on the concentration scale where inhibition reaches its midpoint.

Like-named read-outs stand apart in the source and are kept apart here.

The text below walks through data of PMC5152890 (PLoS ONE, 2016).

In one assay the target is T1, hVEGFR1-ECD (Homo sapiens, UniProt P17948).
T1 construct: purchased R&D Systems, Abingdon, UK
Type of assay: binding. Conditions: for % displacement at 30 μM: 1% DMSO; for IC50: read-out: IC50 [95% CI]; for effect on the competition assay (in words): divalent cations, VEGF-A/hVEGFR1 interaction.

The target of a further assay is T2, hVEGFR1d2 (Homo sapiens, UniProt P17948).
T2 construct: The human hVEGFR1d2 protein (residues 132–226) was expressed and purified; made in house; host or cells: E. coli Rosetta-gami(DE3)pLysS is stated only for the 15N-labelled batch
The assay can be described thus: analytical size exclusion chromatography of hVEGFR1d2 dimerization. The conditions noted are these: 1 mM CuSO4, 160 μM hVEGFR1d2, gel filtration. The protocol:
Because the competition assay results indicated a higher effect of Cu^2+ ions compared to Zn^2+ or Co^2, the Cu^2+-induced dimerization of hVEGFR1d2 in solution was verified using analytical gel-filtration chromatography. In the presence of 1 mM EDTA a single hVEGFR1d2 peak was observed, which represents the monomer (apparent MW = 14.9 kDa). In the presence of 1 mM CuSO4, two peaks were eluted corresponding respectively to the hVEGFR1d2 dimer (78% of absorption, apparent MW = 27.9 kDa) and monomer (apparent MW = 15.8 kDa). SDS-PAGE analysis confirmed that both peaks consist of hVEGFR1d2 (Fig 7).
The Cu^2+-induced dimerization of hVEGFR1d2 was confirmed using a precalibrated analytical gel-filtration column (Superdex™75 HR 10/300 Amersham GE Healthcare, Little Chalfont, UK). Prior to loading, samples were prepared by incubating 160 μM hVEGFR1d2 in a buffer containing 25 mM Tris-HCl, pH 8.1, 250 mM NaCl, and either 1 mM EDTA or 1mM CuSO4 for 30 min at 18°C. Subsequently, 50 μL of this mixture was loaded at 0.5 mL/min on the column that was equilibrated with the identical respective buffers. Elution peaks were integrated, and the corresponding fractions were analyzed on SDS-PAGE.
A general note: In gel filtration, larger molecules generally elute earlier.

Setting [1] is: biotinylated VEGF-A165 displaced by 30 μM of metal on whole ECD (d1-d7) of VEGFR1.
[2] abbreviates: concentration displacing 50% of biotinylated VEGF-A165 binding on VEGFR1 (ECD).

T1 sequence (P17948 27-687 isoform P17948-2): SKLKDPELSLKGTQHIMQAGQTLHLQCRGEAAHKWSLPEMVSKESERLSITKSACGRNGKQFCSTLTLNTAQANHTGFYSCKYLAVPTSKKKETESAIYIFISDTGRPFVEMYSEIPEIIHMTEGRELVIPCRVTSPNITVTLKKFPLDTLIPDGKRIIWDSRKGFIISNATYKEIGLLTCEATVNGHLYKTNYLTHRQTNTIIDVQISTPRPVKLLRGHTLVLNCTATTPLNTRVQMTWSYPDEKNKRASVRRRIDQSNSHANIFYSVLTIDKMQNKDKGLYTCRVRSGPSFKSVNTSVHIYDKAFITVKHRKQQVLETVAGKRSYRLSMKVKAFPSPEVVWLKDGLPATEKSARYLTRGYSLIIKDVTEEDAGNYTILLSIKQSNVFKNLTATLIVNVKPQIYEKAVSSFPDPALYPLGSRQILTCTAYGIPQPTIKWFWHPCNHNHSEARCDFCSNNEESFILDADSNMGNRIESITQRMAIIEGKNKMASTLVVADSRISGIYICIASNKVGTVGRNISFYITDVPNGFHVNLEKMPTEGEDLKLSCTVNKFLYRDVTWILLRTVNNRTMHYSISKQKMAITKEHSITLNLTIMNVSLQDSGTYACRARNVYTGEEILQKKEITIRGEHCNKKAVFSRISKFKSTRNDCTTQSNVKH
T2 sequence (P17948 132-226): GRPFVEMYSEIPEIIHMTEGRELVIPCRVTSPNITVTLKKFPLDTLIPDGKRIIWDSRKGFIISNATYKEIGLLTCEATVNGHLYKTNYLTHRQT

Turning to `[Cl][Cd][Cl]` [CdCl2], the “% displacement at 30 μM” value at hVEGFR1-ECD (setting [1]) is on record as 38 ± 4%. For the same compound, at hVEGFR1-ECD (setting [2]), the half-maximal inhibitory concentration (IC50) came to 48000 nM.

`[Cd+2]` [Cd^2+]: the “effect on the competition assay (in words)” value (“effect” for short) on hVEGFR1-ECD was “little”.

Consider `[Cl-].[Cl-].[Co+2]` [CoCl2], for which, on hVEGFR1-ECD, the “% displacement at 30 μM” value turned out to be 40 ± 2% and the half-inhibitory concentration (IC50) stood at 47100 nM.

Consider `O=S(=O)([O-])[O-].[Co+2]` [CoSO4], for which the “% displacement at 30 μM” value on hVEGFR1-ECD (setting [1]) was 44 ± 1%.

In the case of `[Co+2]` [Co^2+], the “effect” value on hVEGFR1-ECD was “little”.

Consider `CC(=O)[O-].CC(=O)[O-].[Cu+2]` [Cu(OAc)2], for which the “% displacement at 30 μM” value at hVEGFR1-ECD (setting [1]) is reported as 69 ± 2%. Moreover, the IC50 on hVEGFR1-ECD (setting [2]) came to 1320 nM.

For `[Cl][Cu][Cl]` [CuCl2], on hVEGFR1-ECD (setting [1]), the “% displacement at 30 μM” value was determined as 87 ± 2%. The concentration for half-maximal inhibition (IC50) at hVEGFR1-ECD (setting [2]) stood at 1260 nM.

Regarding `O=S(=O)([O-])[O-].[Cu+2]` [CuSO4], the “% displacement at 30 μM” value at hVEGFR1-ECD (setting [1]) was found to be 83 ± 8%. The IC50 at hVEGFR1-ECD (setting [2]) is 970 nM. Also, the “hVEGFR1d2 dimer peak, % of absorption” value at hVEGFR1d2 was 78%.

On to `[Cu+2]` [Cu^2+], for which the “disruption of the VEGF-A/hVEGFR1-ECD interaction in the presence of a metal chelator” value at hVEGFR1-ECD (with EDTA, 1 eq.) was “unable to disrupt the VEGF-A/hVEGFR1-ECD interaction”.

As to `O=S(=O)([O-])[O-].[Fe+2]` [FeSO4], the “% displacement at 30 μM” value on hVEGFR1-ECD (setting [1]) amounted to 13 ± 5%.

With `[Fe+2]` [Fe^2+], on hVEGFR1-ECD, the “effect” value is listed as “no effect”.

On to `O=S(=O)([O-])[O-].[Mn+2]` [MnSO4], for which, at hVEGFR1-ECD (setting [1]), the “% displacement at 30 μM” value is 0%.

As to `[Mn+2]` [Mn^2+], the “effect” value on hVEGFR1-ECD is listed as “no effect”.

For `O=S(=O)([O-])[O-].[Na+].[Na+]` [Na2SO4], on hVEGFR1-ECD (setting [1]), the “% displacement at 30 μM” value amounted to 0%.

For the compound `O=S(=O)([O-])[O-].[Ni+2]` [NiSO4], the “% displacement at 30 μM” value at hVEGFR1-ECD (setting [1]) is listed as 75 ± 1%. In addition, the IC50 at hVEGFR1-ECD (setting [2]) was 3540 nM.

Regarding `[Ni+2]` [Ni^2+], the “IC50 [95% CI]” value on hVEGFR1-ECD (setting [2]) is given as “within the micromolar range”.

As for `CC(=O)[O-].CC(=O)[O-].[Pd+2]` [Pd(OAc)2], the “% displacement at 30 μM” value at hVEGFR1-ECD (setting [1]) came out at 97 ± 3%. For the same compound, the IC50 at hVEGFR1-ECD (setting [2]) was 360 nM.

Regarding `[Cl][Pd][Cl]` [PdCl2], the “% displacement at 30 μM” value on hVEGFR1-ECD (setting [1]) came to 93 ± 1%. The IC50 at hVEGFR1-ECD (setting [2]) worked out at 250 nM.

`O=S(=O)([O-])[O-].[Zn+2]` [ZnSO4]: the “% displacement at 30 μM” value on hVEGFR1-ECD (setting [1]) worked out at 61 ± 2%. On hVEGFR1-ECD (setting [2]), the half-inhibitory concentration (IC50) was determined as 5940 nM.

Turning to `[Zn+2]` [Zn^2+], the “IC50 [95% CI]” value on hVEGFR1-ECD (setting [2]) is listed as “within the micromolar range”.
